ChEMBL document CHEMBL5241131, “2-Anilino-4-(1-methyl-1H-pyrazol-4-yl)pyrimidine-derived CDK2 inhibitors as anticancer agents: Design, synthesis & evaluation” (Bioorg Med Chem, 2023)
Active and inactive are the calls of the source. No cut-off for these calls is given here.

Experiments:
[1] = molecular target: Cyclin-dependent kinase 1/cyclin B (Homo sapiens) (UniProt P06493+P14635+Q8WWL7+O95067); assay: Inhibition of CDK1/Cyclin B (unknown origin) at 1 uM incubated for 30 to 60 mins presence of dithiothreitol by Cheng-Prusoff equation analysis relative to control; type: protein-complex assay; conditions: time 30-60 min
[2] = molecular target: T1, Cyclin-dependent kinase 2/cyclin E (Homo sapiens, UniProt P24941); assay: Inhibition of CDK2/cyclin E (unknown origin) assessed as inhibition constant incubated for 30 to 60 mins presence of dithiothreitol by Cheng-Prusoff equation analysis; type: protein-complex assay
[3] = molecular target: Cyclin-dependent kinase 5/CDK5 activator 1 (Homo sapiens) (UniProt Q00535+Q15078); assay: Inhibition of CDK5/p25 (unknown origin) at 1 uM incubated for 30 to 60 mins presence of dithiothreitol by Cheng-Prusoff equation analysis relative to control; type: protein-complex assay; conditions: time 30-60 min
[4] = molecular target: CDK9/cyclin T1 (Homo sapiens) (UniProt O60563+P50750); assay: Inhibition of CDK9/cyclin T1 (unknown origin) at 1 uM incubated for 30 to 60 mins presence of dithiothreitol by Cheng-Prusoff equation analysis relative to control; type: protein-complex assay; conditions: time 30-60 min
[5] = test system: A2780; assay: Antiproliferative activity against human A2780 cells assessed as inhibition of cell growth at 1 uM incubated for 72 hrs by MTT assay; type: functional; design: scale not given: the % may be the effect or the level left
[6] = molecular target: CDK9/Cyclin T (Homo sapiens, UniProt P50750); assay: Inhibition of CDK9/cyclin T (unknown origin) assessed as inhibition constant; type: protein-complex assay
[7] = molecular target: T2, Cyclin-dependent kinase 1/cyclin B (Homo sapiens, UniProt P06493); assay: Inhibition of CDK1/Cyclin B (unknown origin) assessed as inhibition constant incubated for 30 to 60 mins presence of dithiothreitol by Cheng-Prusoff equation analysis; type: protein-complex assay
[8] = molecular target: Cyclin-dependent kinase 5/CDK5 activator 1 (Homo sapiens, UniProt Q00535); assay: Inhibition of CDK5/p25 (unknown origin) assessed as inhibition constant incubated for 30 to 60 mins presence of dithiothreitol by Cheng-Prusoff equation analysis; type: protein-complex assay
[9] = molecular target: CDK9/cyclin T1 (Homo sapiens, UniProt P50750); assay: Inhibition of CDK9/cyclin T1 (unknown origin) assessed as inhibition constant incubated for 30 to 60 mins presence of dithiothreitol by Cheng-Prusoff equation analysis; type: protein-complex assay
[10] = molecular target: Cyclin-dependent kinase 2/cyclin E (Homo sapiens) (UniProt P24864+P24941+O96020); assay: Inhibition of CDK2/cyclin E (unknown origin) at 1 uM incubated for 30 to 60 mins presence of dithiothreitol by Cheng-Prusoff equation analysis relative to control; type: protein-complex assay; conditions: time 30-60 min
[11] = test system: A2780; assay: Antiproliferative activity against human A2780 cells assessed as inhibition of cell growth incubated for 72 hrs by MTT assay; type: functional
[12] = molecular target: T1, Cyclin-dependent kinase 2/cyclin E; assay: Inhibition of CDK2/cyclin E (unknown origin) assessed as inhibition constant; type: protein-complex assay
[13] = molecular target: T2, Cyclin-dependent kinase 1/cyclin B; assay: Inhibition of CDK1/Cyclin B (unknown origin) assessed as inhibition constant; type: protein-complex assay
[14] = test system: OVCAR-5; assay: Antiproliferative activity against human OVCAR-5 cells assessed as inhibition of cell growth incubated for 72 hrs by MTT assay; type: functional
[15] = test system: U-937; assay: Antiproliferative activity against human U-937 cells assessed as inhibition of cell growth incubated for 72 hrs by MTT assay; type: functional
[16] = test system: MV4-11; assay: Antiproliferative activity against human MV4-11 cells assessed as inhibition of cell growth incubated for 72 hrs by MTT assay; type: functional
[17] = test system: MDA-MB-231; assay: Antiproliferative activity against human MDA-MB-231 cells assessed as inhibition of cell growth incubated for 72 hrs by MTT assay; type: functional
[18] = test system: NCI-H460; assay: Antiproliferative activity against human NCI-H460 cells assessed as inhibition of cell growth incubated for 72 hrs by MTT assay; type: functional
[19] = test system: NCI-H82; assay: Antiproliferative activity against human NCI-H82 cells assessed as inhibition of cell growth incubated for 72 hrs by MTT assay; type: functional
[20] = test system: U-251; assay: Antiproliferative activity against human U-251 cells assessed as inhibition of cell growth incubated for 72 hrs by MTT assay; type: functional
[21] = test system: HCT-116; assay: Antiproliferative activity against human HCT-116 cells assessed as inhibition of cell growth incubated for 72 hrs by MTT assay; type: functional
[22] = test system: HT-29; assay: Antiproliferative activity against human HT-29 cells assessed as inhibition of cell growth incubated for 72 hrs by MTT assay; type: functional
[23] = test system: KM12; assay: Antiproliferative activity against human KM12 cells assessed as inhibition of cell growth incubated for 72 hrs by MTT assay; type: functional
[24] = test system: COLO 205; assay: Antiproliferative activity against human COLO 205 cells assessed as inhibition of cell growth incubated for 72 hrs by MTT assay; type: functional
[25] = test system: ES-2; assay: Antiproliferative activity against human ES2 cells assessed as inhibition of cell growth incubated for 72 hrs by MTT assay; type: functional
[26] = test system: OAW-28; assay: Antiproliferative activity against human OAW-28 cells assessed as inhibition of cell growth incubated for 72 hrs by MTT assay; type: functional
[27] = test system: OV-90; assay: Antiproliferative activity against human OV-90 cells assessed as inhibition of cell growth incubated for 72 hrs by MTT assay; type: functional
[28] = Antiproliferative activity against human COV318 cells assessed as inhibition of cell growth incubated for 72 hrs by MTT assay; type: functional
[29] = Antiproliferative activity against human COV504 cells assessed as inhibition of cell growth incubated for 72 hrs by MTT assay; type: functional
[30] = test system: HCT-116; assay: Induction of cell cycle arrest in human HCT-116 cells assessed as accumulation of cells at sub G1 phase at 1 uM incubated for 24 hrs by propidium iodide staining based flow cytometry (reference value: 0.24%); type: functional
[31] = test system: HCT-116; assay: Induction of cell cycle arrest in human HCT-116 cells assessed as accumulation of cells at G1 phase at 1 uM incubated for 24 hrs by propidium iodide staining based flow cytometry (reference value: 51.33%); type: functional
[32] = test system: HCT-116; assay: Induction of cell cycle arrest in human HCT-116 cells assessed as accumulation of cells at S phase at 1 uM incubated for 24 hrs by propidium iodide staining based flow cytometry (reference value: 18.01%); type: functional
[33] = test system: HCT-116; assay: Induction of cell cycle arrest in human HCT-116 cells assessed as accumulation of cells at G2/M phase at 1 uM incubated for 24 hrs by propidium iodide staining based flow cytometry (reference value: 28.37%); type: functional
[34] = test system: HCT-116; assay: Induction of apoptosis in human HCT-116 cells assessed as viable cells at 1 uM incubated for 72 hrs by AnnexinV-FITC/propidium iodide staining based flow cytometry (reference value: 93.43%); type: functional; conditions: read-out: Activity
[35] = test system: HCT-116; assay: Induction of apoptosis in human HCT-116 cells assessed as early apoptotic cells at 1 uM incubated for 72 hrs by AnnexinV-FITC/propidium iodide staining based flow cytometry (reference value: 2.95%); type: functional
[36] = test system: HCT-116; assay: Induction of apoptosis in human HCT-116 cells assessed as late apoptotic cells at 1 uM incubated for 72 hrs by AnnexinV-FITC/propidium iodide staining based flow cytometry (reference value: 2.91%); type: functional
[37] = test system: HCT-116; assay: Induction of apoptosis in human HCT-116 cells assessed as necrotic cells at 1 uM incubated for 72 hrs by AnnexinV-FITC/propidium iodide staining based flow cytometry (Rvb =0.71%); type: functional
[38] = test system: HCT-116; assay: Induction of apoptosis in human HCT-116 cells assessed as increase in cleaved PARP level at 1 uM incubated for 24 hrs by Western blot analysis; type: functional, cell-based

Sequence of Cyclin-dependent kinase 5/CDK5 activator 1 (Homo sapiens) (Q00535 whole entry): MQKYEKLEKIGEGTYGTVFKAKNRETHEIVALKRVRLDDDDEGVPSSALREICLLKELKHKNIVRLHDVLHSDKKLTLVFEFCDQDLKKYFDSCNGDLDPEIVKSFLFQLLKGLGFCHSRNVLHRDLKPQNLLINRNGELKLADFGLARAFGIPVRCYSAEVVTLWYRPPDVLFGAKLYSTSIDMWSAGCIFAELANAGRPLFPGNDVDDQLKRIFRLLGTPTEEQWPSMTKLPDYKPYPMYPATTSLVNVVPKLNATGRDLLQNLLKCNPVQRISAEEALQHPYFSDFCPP
Sequence of Cyclin-dependent kinase 5/CDK5 activator 1 (Homo sapiens) (Q15078 99-307 partner limits assumed): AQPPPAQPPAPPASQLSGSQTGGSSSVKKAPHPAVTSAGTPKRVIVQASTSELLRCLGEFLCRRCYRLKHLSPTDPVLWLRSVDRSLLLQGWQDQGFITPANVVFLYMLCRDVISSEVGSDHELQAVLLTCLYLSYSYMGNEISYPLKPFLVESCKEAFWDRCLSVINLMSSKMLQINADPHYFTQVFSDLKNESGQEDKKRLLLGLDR
Sequence of Cyclin-dependent kinase 5/CDK5 activator 1 (Q00535 whole entry): as the sequence (Q00535 whole entry) above
Sequence of Cyclin-dependent kinase 5/CDK5 activator 1 (Q15078 whole entry, further chain): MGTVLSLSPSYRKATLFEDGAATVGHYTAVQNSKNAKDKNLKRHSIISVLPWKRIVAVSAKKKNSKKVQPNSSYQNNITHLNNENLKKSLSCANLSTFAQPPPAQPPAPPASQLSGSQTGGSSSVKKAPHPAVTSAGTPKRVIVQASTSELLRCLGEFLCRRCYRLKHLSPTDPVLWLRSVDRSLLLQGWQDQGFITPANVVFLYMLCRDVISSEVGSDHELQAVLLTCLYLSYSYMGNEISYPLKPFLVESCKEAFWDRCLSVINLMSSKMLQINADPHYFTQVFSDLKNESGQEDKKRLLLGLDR
Sequence of CDK9/cyclin T1 (O60563 whole entry): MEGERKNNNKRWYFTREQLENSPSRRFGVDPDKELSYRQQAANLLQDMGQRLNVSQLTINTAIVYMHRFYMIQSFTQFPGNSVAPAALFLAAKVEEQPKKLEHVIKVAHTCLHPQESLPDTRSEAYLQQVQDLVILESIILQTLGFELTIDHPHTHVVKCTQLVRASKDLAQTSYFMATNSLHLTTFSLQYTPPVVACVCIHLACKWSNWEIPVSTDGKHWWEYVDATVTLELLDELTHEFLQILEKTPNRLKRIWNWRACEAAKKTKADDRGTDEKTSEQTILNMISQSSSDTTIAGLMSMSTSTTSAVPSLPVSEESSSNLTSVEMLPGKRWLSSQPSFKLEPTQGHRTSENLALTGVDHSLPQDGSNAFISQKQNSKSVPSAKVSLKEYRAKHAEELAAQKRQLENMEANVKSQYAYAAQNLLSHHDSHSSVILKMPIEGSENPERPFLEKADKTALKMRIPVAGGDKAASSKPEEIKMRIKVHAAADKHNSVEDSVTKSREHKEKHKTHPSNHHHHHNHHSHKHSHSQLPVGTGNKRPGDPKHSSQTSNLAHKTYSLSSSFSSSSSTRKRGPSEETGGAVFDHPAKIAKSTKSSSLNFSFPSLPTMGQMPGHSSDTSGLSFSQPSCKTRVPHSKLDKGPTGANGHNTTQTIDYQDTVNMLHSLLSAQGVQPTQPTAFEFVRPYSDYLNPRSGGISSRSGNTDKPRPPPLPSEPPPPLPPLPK
Sequence of CDK9/cyclin T1 (P50750 whole entry): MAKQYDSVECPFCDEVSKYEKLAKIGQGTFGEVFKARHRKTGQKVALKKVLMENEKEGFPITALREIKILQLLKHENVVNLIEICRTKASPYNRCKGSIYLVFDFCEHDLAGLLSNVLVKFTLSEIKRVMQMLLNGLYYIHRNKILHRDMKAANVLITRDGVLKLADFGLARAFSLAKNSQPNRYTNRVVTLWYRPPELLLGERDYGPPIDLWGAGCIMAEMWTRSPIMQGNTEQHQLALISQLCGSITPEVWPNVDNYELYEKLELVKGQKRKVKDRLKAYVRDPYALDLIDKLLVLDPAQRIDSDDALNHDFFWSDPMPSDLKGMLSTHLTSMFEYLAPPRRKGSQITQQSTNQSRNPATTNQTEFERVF
Sequence of CDK9/Cyclin T (O60563 whole entry): as the sequence (O60563 whole entry) above
Sequence of CDK9/Cyclin T (P50750 whole entry): as the sequence (P50750 whole entry) above
Sequence of CDK9/Cyclin T (O60583 whole entry, further chain): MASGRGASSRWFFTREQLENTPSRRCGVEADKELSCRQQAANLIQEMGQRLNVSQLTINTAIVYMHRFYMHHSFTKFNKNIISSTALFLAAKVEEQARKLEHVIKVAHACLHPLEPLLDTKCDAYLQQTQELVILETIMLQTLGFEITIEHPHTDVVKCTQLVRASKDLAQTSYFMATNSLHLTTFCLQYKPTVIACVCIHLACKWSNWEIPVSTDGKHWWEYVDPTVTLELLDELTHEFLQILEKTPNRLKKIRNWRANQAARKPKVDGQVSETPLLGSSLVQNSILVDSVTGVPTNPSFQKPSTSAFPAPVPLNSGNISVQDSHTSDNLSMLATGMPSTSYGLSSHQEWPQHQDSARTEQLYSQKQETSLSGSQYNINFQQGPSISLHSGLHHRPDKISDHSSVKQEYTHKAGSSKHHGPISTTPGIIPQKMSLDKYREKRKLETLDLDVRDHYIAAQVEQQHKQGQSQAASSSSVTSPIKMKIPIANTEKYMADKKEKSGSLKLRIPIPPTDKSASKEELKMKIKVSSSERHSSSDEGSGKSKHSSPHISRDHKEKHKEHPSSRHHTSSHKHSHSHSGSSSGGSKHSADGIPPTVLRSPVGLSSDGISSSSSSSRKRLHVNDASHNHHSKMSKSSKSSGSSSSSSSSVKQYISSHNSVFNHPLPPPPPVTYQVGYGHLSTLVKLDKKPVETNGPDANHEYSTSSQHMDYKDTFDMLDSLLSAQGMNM

SMILES | inhibition [1] | Ki [2] | inhibition [3] | inhibition [4] | Ki [7] | Ki [8] | inhibition [10] | GI50 [11] | Activity [5] | also measured
C[C@@]1(O)CCC[C@H]1n1c(=O)c(C(F)F)cc2cnc(NC3CCN(S(C)(=O)=O)CC3)nc21 [EBVACICLIB] | – | – | – | – | – | – | – | – | – | Ki [6]: < 19 nM
CC[C@@H](Nc1nc(NCc2cnc(C)cc2C)c2ncn(C(C)C)c2n1)[C@H](C)O | – | – | – | – | – | – | – | – | – | Ki [12]: 5 nM; Ki [13]: 578 nM
Cn1cc(-c2nc(Nc3ccc(F)c(C(F)(F)F)c3)ncc2F)cn1 | 22% | – | 16% | 51% | – | – | 1% | – | 28% | –
Cn1cc(-c2nc(NC3CCN(S(C)(=O)=O)CC3)ncc2Cl)cn1 | – | 8 nM | – | 39% | 26 nM | 9 nM | – | – | 45% | –
Cn1cc(-c2nc(NC3CCN(S(C)(=O)=O)CC3)ncc2F)cn1 | – | 18 nM | – | 55% | 99 nM | 36 nM | – | – | 17% | –
Cn1cc(-c2nc(Nc3ccc(C(F)(F)F)c(Cl)c3)ncc2F)cn1 | 8% | – | 3% | 39% | – | – | 10% | – | 32% | –
CNc1nc(C)c(-c2nc(Nc3cccc(S(N)(=O)=O)c3)ncc2F)s1 [ASNUCICLIB] | – | – | – | – | – | – | – | – | – | Activity [30]: 1.21%; Activity [31]: 28.88%; Activity [32]: 16.81%; Activity [33]: 53.11%; viability at 1 µM [34]: 77%; Activity [35]: 15.19%; Activity [36]: 6.85%; Activity [37]: 0.95%; Activity [38]: Active
Cn1cc(-c2nc(Nc3ccc(S(=O)(=O)C(F)(F)F)cc3)ncc2F)cn1 | 54% | 70 nM | 46% | 6% | – | – | 15% | – | 54% | –
Cn1cc(-c2nc(Nc3cccc([N+](=O)[O-])c3)ncc2F)cn1 | 54% | 87 nM | 67% | – | – | – | – | 113 nM | – | Ki [9]: 147 nM
Cn1cc(-c2nc(Nc3cccc(Cl)c3)ncc2F)cn1 | 50% | – | 46% | 69% | – | – | 57% | – | 12% | –
Cc1nn(C)cc1-c1nc(NC2CCN(S(C)(=O)=O)CC2)ncc1Cl | – | 16 nM | – | 27% | 12 nM | 2 nM | – | – | 20% | –

Now from value to compound, other results behind:

inhibition [1] | Ki [2] | inhibition [3] | inhibition [4] | Ki [7] | Ki [8] | inhibition [10] | GI50 [11] | SMILES | Activity [5] | also measured
65% | 171 nM | 48% | 59% | – | – | – | – | Cn1nccc1-c1nc(Nc2cccc(S(N)(=O)=O)c2)ncc1F | 0% | –
– | 7 nM | – | – | 6 nM | 36 nM | – | – | Cn1cc(-c2nc(Nc3ccc(S(C)(=O)=O)cc3)ncc2Cl)cn1 | 63% | Ki [9]: 229 nM
2% | – | 58% | 45% | – | – | 53% | 125 nM | Cn1cc(-c2nc(Nc3cccc(S(=O)(=O)C(F)(F)F)c3)ncc2Cl)cn1 | 63% | –
– | 21 nM | – | – | 6 nM | 19 nM | – | 232 nM | Cn1cc(-c2nc(Nc3ccc(S(N)(=O)=O)cc3)ncc2F)cn1 | – | Ki [9]: 271 nM
– | 176 nM | – | – | 5 nM | 92 nM | – | 80 nM | Cn1cc(-c2nc(Nc3cccc(S(N)(=O)=O)c3)ncc2Cl)cn1 | – | Ki [9]: 301 nM
– | 23 nM | – | – | 5 nM | 77 nM | – | 18 nM | Cn1cc(-c2nc(Nc3cccc(S(N)(=O)=O)c3)ncc2F)cn1 | – | GI50 [14]: 80 nM; Ki [9]: 26 nM; GI50 [15]: 25 nM; GI50 [16]: 32 nM; GI50 [17]: 129 nM; GI50 [18]: 162 nM; GI50 [19]: 119 nM; GI50 [20]: 154 nM; GI50 [21]: 65 nM; GI50 [22]: 81 nM; GI50 [23]: 90 nM; GI50 [24]: 64 nM; GI50 [25]: 109 nM; GI50 [26]: 149 nM; GI50 [27]: 83 nM; GI50 [28]: 79 nM; GI50 [29]: 106 nM
4% | – | 41% | 57% | – | – | 13% | – | Cn1cc(-c2cc(N)nc(Nc3cccc(S(N)(=O)=O)c3)n2)cn1 | 0% | –
– | – | – | 33% | 146 nM | 42 nM | – | – | Cn1cc(-c2nc(Nc3ccc(S(C)(=O)=O)cc3)ncc2F)cn1 | 5% | –
24% | – | 56% | 73% | – | – | 48% | 7 nM | Cn1cc(-c2nc(Nc3cccc([N+](=O)[O-])c3)ncc2Cl)cn1 | – | –
42% | – | 46% | 20% | – | – | 1% | 215 nM | Cn1cc(-c2nc(Nc3cccc(S(=O)(=O)C(F)(F)F)c3)ncc2F)cn1 | – | –
6% | – | 40% | 40% | – | – | 53% | – | Nc1cc(-c2cnn(Cc3ccccc3)c2)nc(Nc2cccc(S(N)(=O)=O)c2)n1 | 0% | –
